Columns and labels:
[1] = system: Daphnia magna; conditions: in vivo
[2] = system: Fish; test: Fish aqua tox (OECD 203); assay type: in vivo

dialkyldimethyl ammonium chloride [Adogen 442]
Aquatoxicity, invertebrates, Daphnia magna; (202) 48 h; EC50 [1]: 0.19 µg/mL
Fish; aqua tox (203); 96 h; LC50 [2]: 10.1 µg/mL

From patent US20190040584A1, “Use of DIPA-Esterquat Debonder For Tissue And Fluff Pulp Manufacturing” (Evonik Degussa GmbH, priority 2016, published 2019)
